# Experimental data from patent US8183206B2, “Drugs comprising combination of antithrombotic agent with pyrazolone derivative” (Mitsubishi Tanabe Pharma Corporation, priority 2001, dated 2012).
# Columns and labels:
# [1] = system: patients diagnosed as cerebral infarction; assay: Function prognosis by modified ranking scale in cerebral infarction patients (Example 2); type: in vivo, human; details: on leaving hospital within 1 month after start of administration
# Experimental: Administration amount and method are shown below.
# Sodium ozagrel: 80 mg of sodium ozagrel was dissolved in an adequate amount of an electrolyte solution or carbohydrate solution and the resulting solution was intravenously administered constantly for 2 weeks, twice daily, that is, in the morning and evening, each over 2 hours.
# (§1) Argatroban: For the first two days, 60 mg/120 ml of argatroban was diluted with an adequate amount of a transfusion fluid and the resulting solution was intravenously infused constantly over 24 hours. For the following 5 days, 10 mg/20 ml of argatroban was diluted with an adequate amount of a transfusion fluid and the resulting solution was intravenously infused twice daily, that is, in the morning and evening, each over 3 hours.
# Sodium ozagrel+edaravone: 80 mg of sodium ozagrel was dissolved in an adequate amount of an electrolyte solution or carbohydrate solution and the resulting solution was intravenously administered constantly for 2 weeks, twice daily, that is, in the morning and evening, each over 2 hours. At the same time, 30 mg/20 ml of edaravone was diluted with an adequate amount of physiological saline and the resulting solution was intravenously infused for 2 weeks, twice daily, that is, in the morning and evening, each over 20 minutes.
# as §1, with “Argatroban+edaravone: For” for “Argatroban: For”, “3 hours; and at the same time, 30 mg/20 ml of edaravone was diluted with an adequate amount of physiological saline and the resulting solution was intravenously infused for 2 weeks twice daily, that is, in the morning and evening, each over 30 minutes.” for “3 hours.”
# In the above-described table, what the meaning of grade will be explained briefly. Grade 0: no symptoms, Grade 1: some symptoms but non-significant disability (able to carry out all daily activities and affairs), Grade 2: slight disability (unable to carry out all previous activities but able to look after own affairs without assistance), Grade 3: moderate disability (requiring some help, but able to walk without assistance), Grade 4: relatively severe disability (requiring assistance for walk or daily activities), Grade 5: very severe disability (bedridden, incontinence and requiring constant nursing care and attention), Grade 6: death.
# [2] = system: patients in the acute stage of cerebral infarction; details: edaravone 30 mg i.v. twice daily for 14 days; evaluated three months after initiation or upon discharge within three months; cited from earlier work
# Wistar rat = assay: Influence of t-PA on the bleeding time (tail transection, anesthetized rats); type: in vivo; details: for Bleeding time: urethane anesthesia, t-PA 1 mg/kg constant i.v. infusion, edaravone 3 mg/kg i.v. 5 min before tail transection, average ± S.E., measured up to 30 min
# Experimental: Via a cannula inserted into the femoral vein of each Wistar rat anesthetized with urethane (1.2 g/kg, i.p.), 1 mg/kg (1 mg=580000 IU; 4 mL/kg, 1 mL/hr) of physiological saline or t-PA was constantly infused. Fifty five minutes after the constant fusion was started, 3 mg of edaravone (3-methyl-1-phenyl-2-pyrazolin-5-one) or physiological saline was administered intravenously. Five minutes after that, the tail was transected at 2 mm from its tip immediately by using a razor. Every 15 seconds, the blood from the tail was blotted with a filter paper and the time until bleeding ceased was measured for up to 30 minutes.
# [3] = system: patients in the acute stage of cerebral infarction; assay: Comparative Example: edaravone alone, modified ranking scale, patients in the acute stage of cerebral infarction; type: in vivo, human; details: edaravone used alone, within three months, from cited data
# Experimental: Evaluation results of edaravone, when administered alone, in accordance with the modified ranking scale are included in Therapeutic Research, Vol. 19(4), 1333-1345, 1998.
# Evaluation method and results: Edaravone (30 mg/20 ml) diluted with 100 ml of physiological saline was intravenously infused to 8 patients in the acute stage of cerebral infarction constantly for 14 days twice daily (morning and evening), each over 30 minutes. During the administration term of this medicament, administration of another medicament which might have an influence on the drug efficacy evaluation was avoided. Evaluation was made in accordance with the modified ranking scale three months after the initiation of the administration or upon discharge of the patient from the hospital within three months after the initiation of administration.
Molecule,"Number of patients in Grade 0 (no symptoms), modified ranking scale [1]","Number of patients in Grade 1 (some symptoms but non-significant disability), modified ranking scale [1]","Number of patients in Grade 2 (slight disability), modified ranking scale [1]","Number of patients in Grade 3 (moderate disability), modified ranking scale [1]","Number of patients in Grade 4 (relatively severe disability), modified ranking scale [1]","Number of patients in Grade 5 (very severe disability), modified ranking scale [1]","Number of patients in Grade 6 (death), modified ranking scale [1]","Number of patients in Grade 0, modified ranking scale [2]","Number of patients in Grade 1 (some symptoms but non-significant disability), modified ranking scale [2]","Number of patients in Grade 2 (slight disability), modified ranking scale [2]","Number of patients in Grade 3, modified ranking scale [2]","Number of patients in Grade 4 (relatively severe disability), modified ranking scale [2]","Number of patients in Grade 5, modified ranking scale [2]","Number of patients in Grade 6, modified ranking scale [2]",Bleeding time (Wistar rat) [min],Ratio of Grade 0 [3] [%],"Influence on bleeding time compared with the control group (physiological saline) (Wistar rat; t-PA 1 mg/kg, result in words)"
"CC1CNc2c(cccc2S(=O)(=O)N[C@@H](CCCNC(=N)N)C(=O)N2CC[C@@H](C)C[C@@H]2C(=O)O)C1 (mixture of isomers) [NOV, (2R, 4R)4-methyl-1-[N^2-((RS)-3-methyl-1,2,3,4-tetrahydro-8-quinolinesulfonyl)-L-arginyl]-2-piperidinecarboxylic acid monohydrate]",1,1,2,1,0,3,0,–,–,–,–,–,–,–,–,–,–
"CC1=NN(c2ccccc2)C(=O)C1 [Edaravone, 3-methyl-1-phenyl-2-pyrazolin-5-one]",–,–,–,–,–,–,–,0,2,3,0,3,0,0,11.55 ± 2.31,0,–
O=C([O-])/C=C/c1ccc(Cn2ccnc2)cc1.[Na+] [OZA],5,2,1,1,0,0,0,–,–,–,–,–,–,–,–,–,–
"t-PA: tissue plasminogen activator, thrombolytic agent; GRTPA (Mitsubishi Pharma Corporation) can be used",–,–,–,–,–,–,–,–,–,–,–,–,–,–,17.70 ± 2.85,–,prolonged the bleeding time significantly
